# Read-outs that look alike come from different tables or passages of the source.
# Experiments:
# [1] = test system: BCG; assay type: cell-based, M. tuberculosis; settings: for number of plaques observed: 72 hours incubation with drug, M. tuberculosis
# [2] = test system: Mycobacterium smegmatis; assay type: cell-based; settings: for number of plaques observed: 72 hours incubation with drug, M. smegmatis
# [3] = Isoniazid concentration 0.1 μg/ml
# [4] = Isoniazid concentration 1.0 μg/ml
# [5] = Isoniazid concentration 10 μg/ml
# [6] = Rifampicin concentration 10 μg/ml
# [7] = Rifampicin concentration 50 μg/ml
# [8] = Rifampicin concentration 100 μg/ml
SMILES,"number of plaques observed [1, 3]","number of plaques observed [1, 4]","number of plaques observed [1, 5]",change in numbers of plaques ([1]; higher concentrations of isoniazid),effect on cells judged from number of plaques versus no drug controls ([1]; lowest concentration of isoniazid),"number of plaques observed [2, 3]","number of plaques observed [2, 4]","number of plaques observed [2, 5]","effect on cells judged from numbers of plaques ([2]; isoniazid, all concentrations, only a slight reduction at the highest concentration)","number of plaques observed [1, 6]","number of plaques observed [1, 7]","number of plaques observed [1, 8]","number of plaques observed [2, 6]","number of plaques observed [2, 7]","number of plaques observed [2, 8]"
"NNC(=O)c1ccncc1 [Isoniazid, isoniazid]",122,40,2,marked reduction in the numbers of plaques,unaffected,++,++,+,mostly unaffected,,,,,,
"CO[C@H]1/C=C/O[C@@]2(C)Oc3c(C)c(O)c4c(O)c(c(/C=N/N5CCN(C)CC5)c(O)c4c3C2=O)NC(=O)/C(C)=C\C=C\[C@H](C)[C@H](O)[C@@H](C)[C@@H](O)[C@@H](C)[C@H](OC(C)=O)[C@@H]1C [Rifampicin, rifampicin]",,,,,,,,,,4,4,10,++,50,8

# — patent US6461833B1, “Method to detect bacteria” (priority 1995, dated 2002)
